From publication PMC3618506 (Nature, 2013) come the findings set out here.

Assay [1] addresses T1, mCRY2-PHR (Mus musculus, UniProt Q9R194).
T1 sequence (Q9R194 1-512): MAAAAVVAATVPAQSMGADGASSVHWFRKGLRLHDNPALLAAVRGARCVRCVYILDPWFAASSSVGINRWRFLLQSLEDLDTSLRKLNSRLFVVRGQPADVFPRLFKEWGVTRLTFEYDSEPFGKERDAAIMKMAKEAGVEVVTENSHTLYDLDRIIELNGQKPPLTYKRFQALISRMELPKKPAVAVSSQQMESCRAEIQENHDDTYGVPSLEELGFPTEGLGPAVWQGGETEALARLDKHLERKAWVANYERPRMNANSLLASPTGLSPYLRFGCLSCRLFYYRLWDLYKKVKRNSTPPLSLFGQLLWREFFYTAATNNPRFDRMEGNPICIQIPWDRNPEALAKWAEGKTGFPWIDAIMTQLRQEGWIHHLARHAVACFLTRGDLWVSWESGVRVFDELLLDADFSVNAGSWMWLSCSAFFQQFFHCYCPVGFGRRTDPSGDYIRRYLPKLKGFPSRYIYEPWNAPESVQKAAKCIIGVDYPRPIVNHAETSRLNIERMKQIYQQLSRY
The assay is described as follows: quenching of FAD fluorescence. In kind it is binding.

Assay [2] has as its target T2, GST-tagged mCRY2 (1-544) (mouse, UniProt Q9R194 1-544).
T2 sequence: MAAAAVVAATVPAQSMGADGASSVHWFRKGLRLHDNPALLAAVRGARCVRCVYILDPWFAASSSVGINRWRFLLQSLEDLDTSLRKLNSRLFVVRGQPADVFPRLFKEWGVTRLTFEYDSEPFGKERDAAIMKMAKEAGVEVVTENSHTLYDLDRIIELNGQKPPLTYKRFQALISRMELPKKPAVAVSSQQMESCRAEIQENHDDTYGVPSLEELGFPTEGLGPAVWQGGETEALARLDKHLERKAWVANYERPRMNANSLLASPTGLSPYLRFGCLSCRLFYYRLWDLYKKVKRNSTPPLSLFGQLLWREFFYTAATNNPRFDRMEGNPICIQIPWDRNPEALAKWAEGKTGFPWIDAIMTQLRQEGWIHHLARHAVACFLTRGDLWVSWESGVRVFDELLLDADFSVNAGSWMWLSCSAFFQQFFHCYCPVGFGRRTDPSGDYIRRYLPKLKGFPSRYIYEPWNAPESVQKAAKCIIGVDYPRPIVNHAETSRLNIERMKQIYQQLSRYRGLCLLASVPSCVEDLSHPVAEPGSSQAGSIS
The assay can be described thus: pull-down.

Turning to `Cc1cc2nc3c(=O)[nH]c(=O)nc-3n(C[C@H](O)[C@H](O)[C@H](O)COP(=O)(O)OP(=O)(O)OC[C@H]3O[C@@H](n4cnc5c(N)ncnc54)[C@H](O)[C@@H]3O)c2cc1C` [FAD], the equilibrium dissociation constant (Kd) – broadly, the free concentration of one partner at which half of the binding sites on the other are occupied at equilibrium, for simple one-to-one binding – in assay [1] was ~40 µM.

B1: Strep-tagged full-length Fbxl3 (natural protein)
chain: MKRGGRDSDRNSSEEGTAEKSKKLRTTNEHSQTCDWGNLLQDIILQVFKYLPLLDRAHASQVCRNWNQVFHMPDLWRCFEFELNQPATSYLKATHPELIKQIIKRHSNHLQYVSFKVDSSKESAEAACDILSQLVNCSLKTLGLISTARPSFMDLPKSHFISALTVVFVNSKSLSSLKIDDTPVDDPSLKVLVANNSDTLKLLKMSSCPHVSPAGILCVADQCHGLRELALNYHLLSDELLLALSSEKHVRLEHLRIDVVSENPGQTHFHTIQKSSWDAFIRHSPKVNLVMYFFLYEEEFDPFFRYEIPATHLYFGRSVSKDVLGRVGMTCPRLVELVVCANGLRPLDEELIRIAERCKNLSAIGLGECEVSCSAFVEFVKMCGGRLSQLSIMEEVLIPDQKYSLEQIHWEVSKHLGRVWFPDMMPTW
On to B1, for which, in assay [2], the binding result was “binds”.
